Laboratory results published in patent publication US20140148443A1, “Novel Imidazolines as dual inhibitors of MDM2 and MDMX” (priority 2012, published 2014).

Key:
[1] = molecular target: recombinant GST-tagged MDM2 (Homo sapiens, UniProt Q00987); assay: HTRF assay of interaction between p53 peptide and GST-tagged MDM2; conditions: inhibition of GST-MDM2 (160 ng/ml) binding to biotinylated p53-peptide
Experimental: The ability of a test compound to inhibit the interaction between p53 and MDM2 protein was measured by an HTRF (homogeneous time-resolved fluorescence) assay in which recombinant GST-tagged MDM2 binds to a peptide that resembles the MDM2-interacting region of p53 Aca-[…]-OH hereinafter p53-peptide). Binding of GST-MDM2 protein and p53-peptide (biotinylated on its N-terminal end) is registered by the FRET (fluorescence resonance energy transfer) between Europium (Eu)-labeled anti-GST antibody and streptavidin-conjugated Allophycocyanin (APC).
The test was performed in black flat-bottom 384-well plates (Costar) in a total volume of 40 uL containing: 90 nM biotinylated peptide, 160 ng/ml GST-MDM2, 20 nM streptavidin-APC (PerkinElmerWallac), 2 nM Eu-labeled anti-GST-antibody (PerkinElmerWallac), 0.02% bovine serum albumin (BSA), 1 mM dithiothreitol (DTT) and 20 mM […] (TBS) buffer as follows: add 10 uL of GST-MDM2 (640 ng/ml working solution) in reaction buffer to each well. Add 10 uL diluted compounds (1:5 dilution in reaction buffer) to each well, mix by shaking. Add 20 uL biotinylated p53 peptide (180 nM working solution) in reaction buffer to each well and mix on shaker. Incubate at 37° C. for 1 h. Add […] streptavidin-APC and Eu-anti-GST antibody mixture (6 nM Eu-anti-GST and 60 nM streptavidin-APC working solution) in TBS buffer with 0.02% BSA, shake at room temperature for 30 minutes and read using a TRF-capable plate reader at 665 and 615 nm (Victor 5, Perkin ElmerWallac). If not specified, the reagents were purchased from Sigma Chemical Co.

GST-tagged MDMX = molecular target: T1, GST-tagged MDMX (Homo sapiens, UniProt O15151); assay: HTRF binding assay of GST-tagged MDMX to p53 peptide
T1 sequence (O15151 1-490): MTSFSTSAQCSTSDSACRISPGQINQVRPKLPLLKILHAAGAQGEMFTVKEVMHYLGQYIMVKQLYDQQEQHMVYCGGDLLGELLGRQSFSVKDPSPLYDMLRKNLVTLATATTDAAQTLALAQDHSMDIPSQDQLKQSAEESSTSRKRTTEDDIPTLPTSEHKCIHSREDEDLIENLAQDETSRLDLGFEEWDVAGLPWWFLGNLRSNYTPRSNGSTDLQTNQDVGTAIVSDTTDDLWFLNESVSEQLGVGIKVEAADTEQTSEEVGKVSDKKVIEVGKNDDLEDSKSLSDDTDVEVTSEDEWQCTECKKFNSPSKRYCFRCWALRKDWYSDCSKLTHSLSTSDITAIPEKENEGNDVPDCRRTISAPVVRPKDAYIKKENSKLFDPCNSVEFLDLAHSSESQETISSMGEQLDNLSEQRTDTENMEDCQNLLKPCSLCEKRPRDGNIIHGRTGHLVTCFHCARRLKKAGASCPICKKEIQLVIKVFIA

Chain of recombinant GST-tagged MDM2 (Q00987 whole entry): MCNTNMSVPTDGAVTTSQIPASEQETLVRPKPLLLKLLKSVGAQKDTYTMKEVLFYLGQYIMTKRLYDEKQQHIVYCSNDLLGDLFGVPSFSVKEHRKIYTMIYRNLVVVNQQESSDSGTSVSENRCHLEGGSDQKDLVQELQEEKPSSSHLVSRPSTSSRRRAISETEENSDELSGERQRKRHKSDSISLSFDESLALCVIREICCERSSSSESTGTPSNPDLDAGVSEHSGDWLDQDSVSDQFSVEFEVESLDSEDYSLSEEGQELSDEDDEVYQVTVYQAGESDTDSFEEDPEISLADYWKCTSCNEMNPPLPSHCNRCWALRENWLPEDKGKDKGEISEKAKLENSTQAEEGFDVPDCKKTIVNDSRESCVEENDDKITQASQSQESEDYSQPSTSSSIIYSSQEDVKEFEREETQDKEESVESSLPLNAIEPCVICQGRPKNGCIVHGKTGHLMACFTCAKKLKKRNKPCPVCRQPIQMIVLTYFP

`CCOc1cc(Cl)c(S(=O)(=O)NC(C)(C)C)cc1C1=N[C@@](C)(c2ccc(Cl)cc2)[C@@](C)(c2ccc(Cl)cc2)N1C(=O)N1CCN(CC(=O)NCC2CCCO2)CC1` (mixture of isomers) [Example 48, 2-{4-[(4S,5R)-2-(5-tert-Butylsulfamoyl-4-chloro-2-ethoxy-phenyl)-4,5-bis-(4-chloro-phenyl)-4,5-dimethyl-4,5-dihydro-imidazole-1-carbonyl]-piperazin-1-yl}-N-(tetrahydro-furan-2-ylmethyl)-acetamide] showed an IC50 [1] of 0.0117 µM and an IC50 (GST-tagged MDMX) of 1.33 µM.

Molecule `CCOc1cc(Cl)c(S(C)(=O)=O)cc1C1=N[C@@](C)(c2ccc(Cl)cc2)[C@@](C)(c2ccc(Cl)cc2)N1C(=O)N1CCC(CC(N)=O)CC1` (racemic) [Example 5, 2-{1-[(4S,5R)-2-(4-Chloro-2-ethoxy-5-methanesulfonyl-phenyl)-4,5-bis-(4-chloro-phenyl)-4,5-dimethyl-4,5-dihydro-imidazole-1-carbonyl]-piperidin-4-yl}-acetamide] has an IC50 [1] of 0.0153 µM and an IC50 (GST-tagged MDMX) of 3.66 µM.

`CCOc1cc(Cl)c(S(C)(=O)=O)cc1C1=N[C@@](C)(c2ccc(Cl)cc2)[C@@](C)(c2ccc(Cl)cc2)N1C(=O)N1CCNC(=O)C1` [Example 2, 4-[(4S,5R)-2-(4-Chloro-2-ethoxy-5-methanesulfonyl-phenyl)-4,5-bis-(4-chloro-phenyl)-4,5-dimethyl-4,5-dihydro-imidazole-1-carbonyl]-piperazin-2-one] gave an IC50 [1] of 0.0057 µM and an IC50 (GST-tagged MDMX) of 1.08 µM.

For `CCOc1cc(Cl)c(S(C)(=O)=O)cc1C1=N[C@@](C)(c2ccc(Cl)cc2)[C@@](C)(c2ccc(Cl)cc2)N1C(=O)N1CCN(C[C@H](O)CO)CC1` [Example 3, [(4S,5R)-2-(4-Chloro-2-ethoxy-5-methanesulfonyl-phenyl)-4,5-bis-(4-chloro-phenyl)-4,5-dimethyl-4,5-dihydro-imidazol-1-yl]-[4-((S)-2,3-dihydroxy-propyl)-piperazin-1-yl]-methanone], the IC50 [1] was 0.0054 µM and the IC50 (GST-tagged MDMX) was 1.14 µM.

`CCOc1cc(Cl)c(S(C)(=O)=O)cc1C1=N[C@@](C)(c2ccc(Cl)cc2)[C@@](C)(c2ccc(Cl)cc2)N1C(=O)N1CCN(CC[C@H](O)CO)C(=O)C1` [Example 4, 4-[(4S,5R)-2-(4-Chloro-2-ethoxy-5-methanesulfonyl-phenyl)-4,5-bis-(4-chloro-phenyl)-4,5-dimethyl-4,5-dihydro-imidazole-1-carbonyl]-1-((S)-3,4-dihydroxy-butyl)-piperazin-2-one] showed an IC50 [1] of 0.0054 µM and an IC50 (GST-tagged MDMX) of 1.73 µM.

`CCOc1cc(Cl)c(S(C)(=O)=O)cc1C1=N[C@@](C)(c2ccc(Cl)cc2)[C@@](C)(c2ccc(Cl)cc2)N1C(=O)N1CCN(CC(N)=O)CC1` [Example 6, 2-{4-[(4S,5R)-2-(4-Chloro-2-ethoxy-5-methanesulfonyl-phenyl)-4,5-bis-(4-chloro-phenyl)-4,5-dimethyl-4,5-dihydro-imidazole-1-carbonyl]-piperazin-1-yl}-acetamide] showed an IC50 [1] of 0.0066 µM and an IC50 (GST-tagged MDMX) of 1.21 µM.

In the case of `CCOc1cc(Cl)c(S(C)(=O)=O)cc1C1=N[C@@](C)(c2ccc(Cl)cc2)[C@@](C)(c2ccc(Cl)cc2)N1C(=O)N1CCN(S(C)(=O)=O)CC1` [Example 7, [(4S,5R)-2-(4-Chloro-2-ethoxy-5-methanesulfonyl-phenyl)-4,5-bis-(4-chloro-phenyl)-4,5-dimethyl-4,5-dihydro-imidazol-1-yl]-(4-methanesulfonyl-piperazin-1-yl)-methanone], the IC50 [1] is reported as 0.0063 µM and the IC50 (GST-tagged MDMX) is reported as 2.49 µM.

`CCOc1cc(Cl)c(S(C)(=O)=O)cc1C1=N[C@@](C)(c2ccc(Cl)cc2)[C@@](C)(c2ccc(Cl)cc2)N1C(=O)N1CCC(N)CC1` [Example 8, (4-Amino-piperidin-1-yl)-[(4S,5R)-2-(4-chloro-2-ethoxy-5-methanesulfonyl-phenyl)-4,5-bis-(4-chloro-phenyl)-4,5-dimethyl-4,5-dihydro-imidazol-1-yl]-methanone] gave an IC50 [1] of 0.0044 µM and an IC50 (GST-tagged MDMX) of 1.07 µM.

Work on `CCOc1cc(Cl)c(S(C)(=O)=O)cc1C1=N[C@@](C)(c2ccc(Cl)cc2)[C@@](C)(c2ccc(Cl)cc2)N1C(=O)N1CCC(CS(C)(=O)=O)CC1` [Example 9, [(4S,5R)-2-(4-Chloro-2-ethoxy-5-methanesulfonyl-phenyl)-4,5-bis-(4-chloro-phenyl)-4,5-dimethyl-4,5-dihydro-imidazol-1-yl]-(4-methanesulfonylmethyl-piperidin-1-yl)-methanone] yielded an IC50 [1] of 0.0058 µM and an IC50 (GST-tagged MDMX) of 1.7 µM.

`CCNC(=O)NC1CCN(C(=O)N2C(c3cc(S(C)(=O)=O)c(Cl)cc3OCC)=N[C@@](C)(c3ccc(Cl)cc3)[C@@]2(C)c2ccc(Cl)cc2)CC1` [Example 10, 1-{1-[(4S,5R)-2-(4-Chloro-2-ethoxy-5-methanesulfonyl-phenyl)-4,5-bis-(4-chloro-phenyl)-4,5-dimethyl-4,5-dihydro-imidazole-1-carbonyl]-piperidin-4-yl}-3-ethyl-urea] was tested, and the IC50 [1] was 0.0042 µM and the IC50 (GST-tagged MDMX) was 0.974 µM.

In the case of `CCOc1cc(Cl)c(S(C)(=O)=O)cc1C1=N[C@@](C)(c2ccc(Cl)cc2)[C@@](C)(c2ccc(Cl)cc2)N1C(=O)N1CCC(NC(=O)NC(C)C)CC1` [Example 11, 1-{1-[(4S,5R)-2-(4-Chloro-2-ethoxy-5-methanesulfonyl-phenyl)-4,5-bis-(4-chloro-phenyl)-4,5-dimethyl-4,5-dihydro-imidazole-1-carbonyl]-piperidin-4-yl}-3-isopropyl-urea], the IC50 [1] is reported as 0.0045 µM and the IC50 (GST-tagged MDMX) is reported as 1.27 µM.

In the case of `CCOc1cc(Cl)c(S(=O)(=O)CC)cc1C1=N[C@@](C)(c2ccc(Cl)cc2)[C@@](C)(c2ccc(Cl)cc2)N1C(=O)N1CCN(CCCS(C)(=O)=O)CC1` [Example 12, [(4S,5R)-2-(4-Chloro-5-ethanesulfonyl-2-ethoxy-phenyl)-4,5-bis-(4-chloro-phenyl)-4,5-dimethyl-4,5-dihydro-imidazol-1-yl]-[4-(3-methanesulfonyl-propyl)-piperazin-1-yl]-methanone], the IC50 [1] is reported as 0.0055 µM and the IC50 (GST-tagged MDMX) is reported as 0.989 µM.

`CCOc1cc(Cl)c(S(C)(=O)=O)cc1C1=N[C@@](C)(c2ccc(Cl)cc2)[C@@](C)(c2ccc(Cl)cc2)N1C(=O)N1CCC(CCS(C)(=O)=O)CC1` [Example 13, [(4S,5R)-2-(4-Chloro-2-ethoxy-5-methanesulfonyl-phenyl)-4,5-bis-(4-chloro-phenyl)-4,5-dimethyl-4,5-dihydro-imidazol-1-yl]-[4-(2-methanesulfonyl-ethyl)-piperidin-1-yl]-methanone] was tested, and the IC50 [1] was 0.0061 µM and the IC50 (GST-tagged MDMX) was 1.37 µM.

`CCOc1cc(Cl)c(S(C)(=O)=O)cc1C1=N[C@@](C)(c2ccc(Cl)cc2)[C@@](C)(c2ccc(Cl)cc2)N1C(=O)N1CCN(CCCS(=O)(=O)CC)CC1` [Example 14, [(4S,5R)-2-(4-Chloro-2-ethoxy-5-methanesulfonyl-phenyl)-4,5-bis-(4-chloro-phenyl)-4,5-dimethyl-4,5-dihydro-imidazol-1-yl]-[4-(3-ethanesulfonyl-propyl)-piperazin-1-yl]-methanone] was tested, and the IC50 [1] was 0.0047 µM and the IC50 (GST-tagged MDMX) was 1.46 µM.

For `CCOc1cc(Cl)c(S(C)(=O)=O)cc1C1=N[C@@](C)(c2ccc(Cl)cc2)[C@@](C)(c2ccc(Cl)cc2)N1C(=O)N1CCN(CC(=O)N(CCOC)CCOC)CC1` [Example 15, 2-{4-[(4S,5R)-2-(4-Chloro-2-ethoxy-5-methanesulfonyl-phenyl)-4,5-bis-(4-chloro-phenyl)-4,5-dimethyl-4,5-dihydro-imidazole-1-carbonyl]-piperazin-1-yl}-N,N-bis-(2-methoxy-ethyl)-acetamide], the IC50 [1] was 0.0055 µM and the IC50 (GST-tagged MDMX) was 1.14 µM.
